According to patent US8680272B2, “3-arylethynyl substituted quinazolinone compounds” (Council of Scientific & Industrial Research, priority 2011, dated 2014):

What was measured:
UACC-62 = assay: Anticancer activity, SRB assay, melanoma cell line UACC-62; format: cell-based; settings: Homo sapiens; Melanoma UACC-62; 48 h continuous drug exposure; read-out: Growth Inhibition GI50
Protocol: (§1) Some of biological activity studies were carried out at the National Cancer Institute (NCI), Maryland, USA.
(§2) The compounds were evaluated for anticancer activity against sixty human cancer cells derived from nine cancer types (leukemia cell line, non-small-cell lung cell line, colon cell line, CNS cell line, melanoma cell line, ovarian cell line, prostate cell line, renal cell line and breast cancer cell line) as shown in Table 1. For each compound, dose response curves for each cell line were measured at a minimum of five concentrations at 10 fold dilutions. A protocol of 48 h continuous drug exposure was used and a sulforhodamine B (SRB) protein assay was used to estimate cell viability or growth.

SF-295 = assay: Anticancer activity, SRB assay, CNS cell line SF-295; format: cell-based, human; settings: Homo sapiens; CNS SF-295; 48 h continuous drug exposure; —^b means GI50 values not attained at the concentrations used; read-out: Growth Inhibition GI50
Protocol: as §1, §2

SK-OV-3 = assay: Anticancer activity, SRB assay, ovarian cell line SK-OV-3; format: cell-based, human; settings: Homo sapiens; Ovarian SK-OV-3; 48 h continuous drug exposure; —^b means GI50 values not attained at the concentrations used; read-out: Growth Inhibition GI50
Protocol: as §1, §2

SN12C = assay: Anticancer activity, SRB assay, renal cell line SN12C; format: cell-based, human; settings: Homo sapiens, 48 h continuous drug exposure, —^b means GI50 values not attained at the concentrations used, read-out: Growth Inhibition GI50
Protocol: as §1, §2

LOX IMVI = assay: Anticancer activity, SRB assay, melanoma cell line LOX IMVI; format: cell-based; settings: Homo sapiens, 48 h continuous drug exposure, read-out: Growth Inhibition GI50
Protocol: as §1, §2

UO-31 = assay: Anticancer activity, SRB assay, renal cell line UO-31; format: cell-based, human; settings: Homo sapiens; Renal UO-31; 48 h continuous drug exposure; —^b means GI50 values not attained at the concentrations used; read-out: Growth Inhibition GI50
Protocol: as §1, §2

SF-268 = assay: Anticancer activity, SRB assay, CNS cell line SF-268; format: cell-based, human; settings: Homo sapiens; CNS SF-268; 48 h continuous drug exposure; —^b means GI50 values not attained at the concentrations used; read-out: Growth Inhibition GI50
Protocol: as §1, §2

HOP-62 = assay: Anticancer activity, SRB assay, non-small lung cell line HOP-62; format: cell-based, human; settings: Homo sapiens; Non-small lung HOP-62; 48 h continuous drug exposure; —^b means GI50 values not attained at the concentrations used; read-out: Growth Inhibition GI50
Protocol: as §1, §2

A549/ATCC = assay: Anticancer activity, SRB assay, non-small lung cell line A549/ATCC; format: cell-based, human; settings: Homo sapiens, 48 h continuous drug exposure, —^b means GI50 values not attained at the concentrations used, read-out: Growth Inhibition GI50
Protocol: as §1, §2

IGROV1 = assay: Anticancer activity, SRB assay, ovarian cell line IGROV1; format: cell-based, human; settings: Homo sapiens, IGROV-1, 48 h continuous drug exposure, —^b means GI50 values not attained at the concentrations used, read-out: Growth Inhibition GI50
Protocol: as §1, §2

MDA-MB-468 = assay: Anticancer activity, SRB assay, breast cell line MDA-MB-468; format: cell-based; settings: Homo sapiens; Breast MDA-MB-468; 48 h continuous drug exposure; read-out: Growth Inhibition GI50
Protocol: as §1, §2

[1] = system: seven colon cancer cell line (COLO 205, HCC-2998, HCT-116, HCT-15, HT29, KM12 and SW-620); assay: Anticancer activity, SRB assay, colon panel; format: cell-based, human
Protocol: as §1, §2

[2] = system: six breast cancer cell line (MCF-7, MDA-MB-231/ATCC, HS 578T, TD-47D, MDA-MB-468 and BT-549); assay: Anticancer activity, SRB assay, breast panel; format: cell-based, human
Protocol: as §1, §2

[3] = system: sixty human cancer cell lines derived from nine cancer types; assay: Anticancer activity against sixty human cancer cell lines; format: cell-based
Protocol: as §1, §2

[4] = system: six CNS cancer cell line (SF-268, SF-295, SF-539, SNB-19, SNB-75 and U251); assay: Anticancer activity, SRB assay, CNS panel; format: cell-based, human
Protocol: as §1, §2

HOP-92 = assay: Anticancer activity, SRB assay, non-small lung cell line HOP-92; format: cell-based, human; settings: Homo sapiens; Non-small lung HOP-92; 48 h continuous drug exposure; —^b means GI50 values not attained at the concentrations used; read-out: Growth Inhibition GI50
Protocol: as §1, §2

MCF7 = assay: Anticancer activity, SRB assay, breast cell line MCF7; format: cell-based; settings: Homo sapiens, 48 h continuous drug exposure, read-out: Growth Inhibition GI50
Protocol: as §1, §2

SF-539 = assay: Anticancer activity, SRB assay, CNS cell line SF-539; format: cell-based, human; settings: Homo sapiens; CNS SF-539; 48 h continuous drug exposure; —^b means GI50 values not attained at the concentrations used; read-out: Growth Inhibition GI50
Protocol: as §1, §2

CCRF-CEM = assay: Anticancer activity, SRB assay, leukemia cell line CCRF-CEM; format: cell-based, human; settings: Homo sapiens, 48 h continuous drug exposure, —^b means GI50 values not attained at the concentrations used, read-out: Growth Inhibition GI50
Protocol: as §1, §2

NCI-H23 = assay: Anticancer activity, SRB assay, non-small lung cell line NCI-H23; format: cell-based; settings: Homo sapiens, Non-small lung NCl-H23, 48 h continuous drug exposure, read-out: Growth Inhibition GI50
Protocol: as §1, §2

TK-10 = assay: Anticancer activity, SRB assay, renal cell line TK-10; format: cell-based, human; settings: Homo sapiens; Renal TK-10; 48 h continuous drug exposure; —^b means GI50 values not attained at the concentrations used; read-out: Growth Inhibition GI50
Protocol: as §1, §2

[5] = system: eight renal cancer cell line (786-0, A498, ACHN, CAKI-1, SN12C, TK-10, UO-31 and RXF 393); assay: Anticancer activity, SRB assay, renal panel; format: cell-based, human; design: mean graph midpoint values (MG_MID) of Log10LC50 / mean graph midpoint values (MG_MID) of log10 TGI (Log10TGI50): unit not given here
Protocol: as §1, §2

HT29 = assay: Anticancer activity, SRB assay, colon cell line HT29; format: cell-based; settings: Homo sapiens, HT-29, 48 h continuous drug exposure, read-out: Growth Inhibition GI50
Protocol: as §1, §2

SK-MEL-28 = assay: Anticancer activity, SRB assay, melanoma cell line SK-MEL-28; format: cell-based, human; settings: Homo sapiens; Melanoma SK-MEL-28; 48 h continuous drug exposure; —^b means GI50 values not attained at the concentrations used; read-out: Growth Inhibition GI50
Protocol: as §1, §2

SR = assay: Anticancer activity, SRB assay, leukemia cell line SR; format: cell-based; settings: Homo sapiens, 48 h continuous drug exposure, read-out: Growth Inhibition GI50
Protocol: as §1, §2

NCI/ADR-RES = assay: Anticancer activity, SRB assay, ovarian cell line NCI/ADR-RES; format: cell-based, human; settings: Homo sapiens, NCI/ADR-RES; Ovarian NCl/ADR-RES; 48 h continuous drug exposure; —^b means GI50 values not attained at the concentrations used; read-out: Growth Inhibition GI50
Protocol: as §1, §2

MDA-MB-435 = assay: Anticancer activity, SRB assay, melanoma cell line MDA-MB-435; format: cell-based, human; settings: Homo sapiens; Melanoma MDA-MB-435; 48 h continuous drug exposure; —^b means GI50 values not attained at the concentrations used; read-out: Growth Inhibition GI50
Protocol: as §1, §2

## Cc1cc(C#Cc2ccccc2)ccc1-n1c(/C=C/c2ccc(O)cc2)nc2ccccc2c1=O [Compound 4b, (E)-2-(4-Hydroxystyryl)-3-(2-methyl-4-(phenylethynyl)phenyl)quinazolin-4(3H)-one]
UACC-62
  GI50: 3.48 µM
SF-295
  GI50: 2.85 µM
SK-OV-3
  GI50: 9.91 µM
SN12C
  GI50: 3.77 µM
LOX IMVI
  GI50: 2.78 µM
UO-31
  GI50: 2.06 µM
SF-268
  GI50: 4.56 µM
HOP-62
  GI50: 13.1 µM
A549/ATCC
  GI50: 3.14 µM
IGROV1
  GI50: 20.6 µM
MDA-MB-468
  GI50: 3.78 µM
[1]; Colon, log value of concentration of the compound resulting in total inhibition of net cell growth
  mean graph midpoint values (MG_MID) of log10 TGI (Log10TGI50): −4.83
[1]; Colon, log value of the concentration of compounds leading to 50% net cell death
  mean graph midpoint values (MG_MID) of Log10LC50: −4.15
[1]; Colon, log values of concentration in mol/L causing 50% inhibition of net cell growth
  mean graph midpoint values (MG_MID) of Log10GI50: −5.55 mol/L
[1]; Homo sapiens, seven colon cancer cell line, exposure period of at least 48 h, read-out: GI50 (range over the panel)
  GI50: 1.99 to 4.08 µM
[2]; Breast, log value of concentration of the compound resulting in total inhibition of net cell growth
  mean graph midpoint values (MG_MID) of log10 TGI (Log10TGI50): −4.58
[2]; Breast, log value of the concentration of compounds leading to 50% net cell death
  mean graph midpoint values (MG_MID) of Log10LC50: >−4.00
[2]; Breast, log values of concentration in mol/L causing 50% inhibition of net cell growth
  mean graph midpoint values (MG_MID) of Log10GI50: −5.54 mol/L
[2]; Homo sapiens, six breast cancer cell line, exposure period of at least 48 h, read-out: GI50 (range over the panel)
  GI50: 2.02 to 3.89 µM
[3]
  in vitro anticancer activity (in words): exhibiting an in vitro anticancer activity
[4]; CNS, log value of concentration of the compound resulting in total inhibition of net cell growth
  mean graph midpoint values (MG_MID) of log10 TGI (Log10TGI50): −4.21
[4]; CNS, log value of the concentration of compounds leading to 50% net cell death
  mean graph midpoint values (MG_MID) of Log10LC50: >−4.00
[4]; CNS, log values of concentration in mol/L causing 50% inhibition of net cell growth
  mean graph midpoint values (MG_MID) of Log10GI50: −5.35 mol/L
[4]; Homo sapiens, six CNS cancer cell line, exposure period of at least 48 h, read-out: GI50 (range over the panel)
  GI50: 2.85 to 6.91 µM
HOP-92
  GI50: 2.5 µM
MCF7
  GI50: 2.72 µM
SF-539
  GI50: 5.65 µM
CCRF-CEM
  GI50: 3.26 µM
NCI-H23
  GI50: 3.62 µM
TK-10
  GI50: 2.62 µM
[5]; Homo sapiens, eight renal cancer cell line, exposure period of at least 48 h, read-out: in vitro anticancer activity (range over the panel)
  GI50: 1.56 to 3.77 µM
[5]; Renal, log value of concentration of the compound resulting in total inhibition of net cell growth
  mean graph midpoint values (MG_MID) of log10 TGI (Log10TGI50): −4.65
[5]; Renal, log value of the concentration of compounds leading to 50% net cell death
  mean graph midpoint values (MG_MID) of Log10LC50: >−4.00
[5]; Renal, log values of concentration in mol/L causing 50% inhibition of net cell growth
  mean graph midpoint values (MG_MID) of Log10GI50: −5.52 mol/L
HT29
  GI50: 3.33 µM
SK-MEL-28
  GI50: 4.54 µM
SR
  GI50: 2.45 µM
NCI/ADR-RES
  GI50: 3.09 µM
MDA-MB-435
  GI50: 2.82 µM
